Measurements taken from patent publication US20100274500A1, “METHOD AND SYSTEM FOR MEASURING MEMBRANE POTENTIAL BASED ON FLUORESCENCE POLARIZATION” (Seng Enterprises Ltd., priority 2006, published 2010).
Where “and” joins values, the source holds several entries; their conditions need not be identical. Equal values may be shown once.

Legend:
[1] = Direct influence of viscosity (glycerol) on FLT and FP of Rh123 and NAO; format: physicochemical; details: Rh123 5 μg/ml, NAO 10 μM
Protocol: In these tests, the fluorescence lifetime τF was also measured along with the rotational decay time τR. For this, Rh123 (5 μg/ml) and suspension NAO (10 μM) were dissolved in three glycerol suspensions (30%, 60% and 80% v/v) in PBS. Each measurement was performed in triplicate.

[2] = Direct influence of pH on the fluorescence lifetime of Rh123 and NAO; format: physicochemical; details: Rh123 5 μg/ml, NAO 10 μM
Protocol: The intra-cellular environment is heterogeneous and multi-phased; therefore, changes may occur in the acidity level in different regions in the cell. Measurements were executed, for this reason, to test if the acidic level has any influence on the fluorescence lifetime of the Rh123. The measurements were conducted in a K2 system, in a suspension of Rh123 with a concentration of 13 μM and the suspension of NAO, in a concentration of 10 μM with an acidity level of 6.0, 7.4 and 8.5.

[3] = tested on: U937 promonocytic cells; assay: Fluorescence polarization measurements in U937 cells stained with Rh123; format: cell-based; details: for Mean Polarization: average based on 300 U937 cells stained with Rh123; for Mean Polarization / Mean FP, Left Cell / Mean FP, Right Cell: CCCP 5 μM or Nigericin 5 μg/ml, 15 minutes; for Mean FP, Left Cell / Mean FP, Right Cell: overall polarization of the entire cell, U937 stained with Rh123
Protocol: Fluorescence polarization (FP) evaluation was conducted using U937 promonocytic cells under the following physiological conditions: control, following treatment with CCCP and following treatment with Nigericin. All the cells were stained with Rh123, rinsed, loaded in cell chips and then measured. Cell treatment: U937 promonocytic cells were treated with an oxidative phosphorylation uncoupler CCCP (commercially available from Sigma-Aldrich) at a concentration of 5 μM and Nigericin (commercially available from Sigma-Aldrich) at 5 μg/ml for 15 minutes. Cell staining: Cells were stained by treating with […] Rh123 and loaded in cell chips. Fluorescence polarization measurement: Transmitted light images and fluorescence images were obtained parallel to the excitation field (excitation and emission polarizers set at 0°), and perpendicular to it, with the excitation polarizer set at 0°, and the emission polarizer set at 90°. From every pair of parallel and perpendicular images, the FP value was calculated for each pixel, using the following equation and a polarization map was created according to the following equation: In order to obtain a calibration reference point, the polarization value was obtained from the entire cell. […] Accordingly, a cell chip was used which allowed defining the borders of the cell by means of images of the cell received through transmitted light photographs. The borders were projected on the polarization map and the FP average was calculated for each cell. This process was implemented to evaluate all the cells, and a general average was obtained for each given physiological state.

[4] = tested on: U937 promonocytic cells; assay: Fluorescence lifetime measurements in U937 cells stained with Rh123; format: cell-based; details: for f1(weight) / α1(decay) / τ1(lifetime): long lifetime component (attributed to cytoplasm); for f2(weight) / α2(decay) / τ2(lifetime): short lifetime component (attributed to mitochondria); for fluorescence signal from the probe located in the mitochondria: weight of the short decay component
Protocol: Cell treatment: U937 promonocytic cells were treated with an oxidative phosphorylation uncoupler CCCP and Nigericin as described hereinabove.
Cell staining: Cells were stained by treating with Rh123 and loaded in cell chips.
Fluorescence lifetime measurement: Measurements were carried out using polarizers that were set at magic […]. Rh123 was excited by a 488 nm laser line. Fluorescence testing was conducted from 500 nm wavelengths and above (toward the red area).
The results were obtained from an average, encompassing 30 evaluations, with standard deviations recorded accordingly. The outstanding result is the fact that two lifetime groups were obtained, one long—above 4 nanoseconds—and one short—below 3 nanoseconds. In order to determine which region correlates with which lifetime group both the lifetimes and the weights were considered.

[5] = tested on: mitochondria of U937 cells; assay: Mitochondrial membrane potential derived from lifetime decay weights with the Nernst equation; format: cell-based; details: estimated with the f value, Nernst equation at 300° K, VC/VM≅500, U937 cells treated with CCCP
Text: The following example describes the use of weights ƒ and/or α, decay components, to estimate the probe concentration in the mitochondria and the cytoplasm and from this to derive the membrane potential using the Nernst Equation.
The weight is proportional to the total measured fluorescence signal from an area with a certain fluorescence lifetime. In relying on the results of the measurement, it can be assumed that the decay level in the mitochondria and the cytoplasm is equal and, therefore, is not taken into consideration. In order to convert the weight ratio to concentration ratios, it is necessary to multiply them by the inverted volume ratio, i.e., VC/VM (C-Cytoplasm, M-Mitochondria). Given that this ratio is constant for a certain type of synchronized cells, [data not shown], despite the complex measurement-calculation, it is enough to execute this operation only once.
Considering the Nernst equation at 300° K and the measured fluorescence signal: […]

[6] = tested on: U937 cells; assay: Spectroscopic measurements in whole and ruptured cells stained with Rh123; format: cell-based
Protocol: There were two main goals to these experiments. The first goal was to ascertain whether a fluorescence intensity decreases in cells treated with CCCP, and similarly, to ascertain whether fluorescence intensity increases in cells treated with Nigericin. The second goal was to learn about the characteristics and amount of influence of the cellular medium on the Rh123 spectroscopic properties.
The cells were stained with Rh123 at a concentration of 3 μM and suspended in PBS, at a cell concentration of 350,000/ml. At this cell concentration, no scattered signal was detected in the fluorescence measurement setup.
The measurement was conducted in CARY spectrofluorometer. The excitation was performed at 480±10 nm and the fluorescence was collected using a 530±10 nm filter. The cell suspension was divided into 4 aliquots in volumes of 2 ml, each. First, the spectrum for all the parts was measured and a comparison was performed to verify equal cell concentration in each quota. Second, parts 3 and 4 were treated with CCCP, while acetone was added to parts 1 and 2, at the same concentration and volume as that in which the CCCP was dissolved, and a spectrum measurement was made. At the end of this process, parts 1 and 3 were ruptured by sonication (VCX 130, Sonics and Materials Inc, Newtown, USA), and parts 2 and 4 were centrifuged and the supernatant was removed to measure the background.
Since there are differences in the emission spectrum of Rh123 in the mitochondria and cytoplasm, the area under the emission graphs must also be calculated in estimating the given spectral effect of CCCP. The area is proportionate to the number of emitting molecules and not to the measured intensity.
Cell preparation and measurement were conducted using the Cary system, and were identical to those with CCCP, except that Nigericin was used for […] the cells.
The overall emission intensity was calculated as above for CCCP to investigate the cause of the fluorescence intensity increase by calculating the area below the emission graph. The columns show average values and standard deviation values of at least two identical experiments. The stars indicate the significant statistical differences before the ANOVA test.

[7] = Direct influence of CCCP and Nigericin on emission spectrum, polarization and lifetime of Rh123 in suspension
Protocol: A suspension of Rh123 at a concentration of 0.5 μg/ml was prepared. The suspension was divided into three aliquots, each containing a volume of 1 ml. To the first part was added 2.5 μl of PBS. To the second part was added 2.5 μl CCCP at a concentration of 2 mM, so that a final concentration of 5 μM CCCP was reached. To the third part was added 2.5 μl of Nigericin, at a concentration of 2 mg/ml, so that a final concentration of 5 μg/ml Nigericin was reached.
In the first stage, the emission spectrum of the suspension was obtained, using CARY ECLIPSE. The suspensions were excited with 480 nm light and the fluorescence was measured between 500-600 nm, while the slits (emission and excitation) were 2.5 nm.
The direct influence of CCCP and/or Nigericin were tested on the same suspensions of Rh123, measuring the lifetimes in contrast to the control.

Structure (SMILES)	FP ([1]; Glycerin 30% v/v in PBS)	τF ([1]; Glycerin 30% v/v in PBS) [nsec]	τR (rotational decay time) ([1]; Glycerin 30% v/v in PBS) [nsec]	FP ([1]; Glycerin 60% v/v in PBS)	τF ([1]; Glycerin 60% v/v in PBS) [nsec]	τR (rotational decay time) ([1]; Glycerin 60% v/v in PBS) [nsec]	FP ([1]; Glycerin 80% v/v in PBS)	τF ([1]; Glycerin 80% v/v in PBS) [nsec]	τR (rotational decay time) ([1]; Glycerin 80% v/v in PBS) [nsec]	Fluorescence life-time τF ([2]; pH 6.0) [nsec]	Fluorescence life-time τF ([2]; pH 7.4) [nsec]	Fluorescence life-time τF ([2]; pH 8.5) [nsec]	Mean Polarization [3]	Mean FP, Left Cell [3]	Mean FP, Right Cell [3]	f1(weight) [4]	α1(decay) [4]	τ1(lifetime) [4]	f2(weight) [4]	α2(decay) [4]	other results
CCCCCCCCC[n+]1c2cc(N(C)C)ccc2cc2ccc(N(C)C)cc21.[Br-] [NAO]	0.110 ± 0.007	1.599 ± 0.072	0.923 ± 0.181	0.179 ± 0.009	2.081 ± 0.056	1.298 ± 0.057	0.303 ± 0.004	2.556 ± 0.009	3.888 ± 0.181	1.086 ± 0.028	1.051 ± 0.003	1.066 ± 0.006									
N#CC(C#N)=NNc1cccc(Cl)c1 [CCCP]													0.346 ± 0.013	0.343 ± 0.034	0.324 ± 0.046	0.867	0.690 ± 0.105	4.27 nsec and 4.271 ± 0.292 nsec	0.133	0.310 ± 0.100	τ2(lifetime) [4]: 1.475 ± 0.423 nsec; fluorescence signal from the probe located in the mitochondria [4]: about 30%; Δψ (mitochondrial membrane potential) [5]: ~−112.84 mV; number of fluorescent molecules (overall emission intensity following cell rupture) ([6]; ruptured U937 cells stained with Rh123, with and without CCCP): does not diminish the number of fluorescent molecules; leakage of the probe (background signal of the suspending solution) ([6]; supernatant of U937 cells stained with Rh123 following CCCP treatment): causes leakage from the entire cell; emission maximum wavelength of intra-cellular Rh123 following activation of CCCP ([6]; whole U937 cells stained with Rh123 3 μM, 534 nm before CCCP): 532 nm
CO[C@@H]1C[C@@H](C[C@H]2CC[C@H](C)[C@H]([C@@H](C)C(=O)O)O2)O[C@]2(O[C@](C)([C@H]3CC[C@@](C)([C@@H]4O[C@@H]([C@H]5O[C@@](O)(CO)[C@H](C)C[C@@H]5C)C[C@@H]4C)O3)C[C@H]2C)[C@@H]1C [Nigericin]													0.258 ± 0.025	0.255 ± 0.057	0.253 ± 0.048	0.330	0.138 ± 0.048	7.735 ± 0.828 nsec	0.670	0.862 ± 0.030	polarization values in the mitochondrial areas ([3]; polarization map of U937 cells stained with Rh123, compared with control): lower; τ2(lifetime) [4]: 2.519 ± 0.174 nsec; fluorescence signal from the probe found in the cytoplasm ([4]; weight of the long decay component): 14%; fluorescence signal from the probe located in the mitochondria [4]: 86%; overall emission intensity from a suspension of ruptured cells ([6]; U937 cells treated prior to rupture, entire emission range): higher than that received from an untreated cell suspension; overall emission intensity from whole cells ([6]; whole U937 cells stained with Rh123, complete emission range): higher than that of untreated cells
COC(=O)c1ccccc1-c1c2ccc(=N)cc-2oc2cc(N)ccc12.Cl [Rh123]	0.090 ± 0.007	3.861 ± 0.142	0.460 ± 0.010	0.200 ± 0.005	3.536 ± 0.018	2.219 ± 0.006	0.366 ± 0.010	3.500 ± 0.211	8.463 ± 0.047	4.204 ± 0.064	4.325 ± 0.007	4.215 ± 0.037									lifetime of Rh123 in a water suspension (PBS) [7]: ~4.2 nsec
